The values that follow come from PubChem BioAssay AID316 (DTP/NCI, 2004).

Values joined by “and” are separate entries in the source; they are usually repeats but may differ in a detail not shown here. Equal entries are not always repeated. Toxic doses and inconclusive results are not listed.

The test system of this test is P1534 leukemia ip, CD2F1 mice, survival T/C. Kind of test: NCI In Vivo Anticancer Drug Screen. Data for tumor model P1534 Leukemia (intraperitoneal) in CD2F1 (CDF1) mice. As to conditions: endpoint: mean survival time, higher = longer survival. How it is done:
The antitumor activity of compounds was measured in mice bearing transplantable tumors. Survival or tumor size were measured and the results are expressed as the measurement made in the treated group (T) divided by the measurement made in the vehicle treated control group (C). The tumor model used in this assay is P1534 Leukemia (intraperitoneal) in CD2F1 (CDF1) mice

Where [1] appears, read: dose: 62.5 mg/kg/injection, schedule: Q01DX010 (ip), vehicle: saline.
[2] abbreviates: dose: 125.0 mg/kg/injection, schedule: Q01DX010 (ip), vehicle: saline.
[3] abbreviates: dose: 250.0 mg/kg/injection, schedule: Q01DX010 (ip), vehicle: saline.
The mark [4] stands for this setting: dose: 31.3 mg/kg/injection, schedule: Q01DX010 (ip), vehicle: saline.
The mark [5] stands for this setting: dose: 12.5 mg/kg/injection, schedule: Q01DX010 (ip), vehicle: saline.
Setting [6] is: dose: 50.0 mg/kg/injection, schedule: Q01DX010 (ip), vehicle: saline.
[7] abbreviates: dose: 100.0 mg/kg/injection, schedule: Q01DX010 (ip), vehicle: saline.
Where [8] appears, read: dose: 200.0 mg/kg/injection, schedule: Q01DX010 (ip), vehicle: saline.
Where [9] appears, read: dose: 400.0 mg/kg/injection, schedule: Q01DX010 (ip), vehicle: saline.
[10] abbreviates: dose: 100.0 mg/kg/injection, schedule: Q01DX010 (ip), vehicle: water.
[11] abbreviates: dose: 0.13 mg/kg/injection, schedule: Q01DX010 (ip), vehicle: saline.
The mark [12] stands for this setting: dose: 0.25 mg/kg/injection, schedule: Q01DX010 (ip), vehicle: saline.
The mark [13] stands for this setting: dose: 0.5 mg/kg/injection, schedule: Q01DX010 (ip), vehicle: saline.
The mark [14] stands for this setting: dose: 1.0 mg/kg/injection, schedule: Q01DX010 (ip), vehicle: saline.

`NC(=O)c1ccc(N)nc1`: the T/C runs as follows: (dose: 0.25 mg/kg/injection, schedule: Q#A X020 (ip), vehicle: saline) 119 % of control; (dose: 0.38 mg/kg/injection, schedule: Q01DX010 (ip), vehicle: saline) 120 % of control and 94 % of control; (dose: 0.75 mg/kg/injection, schedule: Q01DX010 (ip), vehicle: saline) 153 % of control; (dose: 1.5 mg/kg/injection, schedule: Q01DX006 (iv), vehicle: saline) 114 % of control; (dose: 1.5 mg/kg/injection, schedule: Q01DX010 (im), vehicle: saline) 121 % of control; (dose: 1.5 mg/kg/injection, schedule: Q01DX010 (oral), vehicle: saline) 100 % of control. The T/C runs as follows: (dose: 1.5 mg/kg/injection, schedule: Q01DX010 (sc), vehicle: saline) 121 % of control; (dose: 1.5 mg/kg/injection, schedule: Q03DX Z (ip), vehicle: saline) 119 % of control; (dose: 2.0 mg/kg/injection, schedule: Q#A X020 (ip), vehicle: saline) 100 % of control; (dose: 3.0 mg/kg/injection, schedule: Q01DX006 (iv), vehicle: saline) 114 % of control; (dose: 3.0 mg/kg/injection, schedule: Q01DX010 (im), vehicle: saline) 121 % of control; (dose: 3.0 mg/kg/injection, schedule: Q01DX010 (ip), vehicle: saline) 158 % of control. In addition, the T/C (dose: 3.0 mg/kg/injection, schedule: Q01DX010 (oral), vehicle: saline) is 123 % of control; the T/C (dose: 3.5 mg/kg/injection, schedule: Q01DX001 (ip), vehicle: saline) was 115 % of control; the T/C (dose: 3.5 mg/kg/injection, schedule: Q07DX Z (ip), vehicle: saline) was 115 % of control; the T/C (dose: 6.0 mg/kg/injection, schedule: Q01DX010 (im), vehicle: saline) is 121 % of control; the T/C (dose: 6.0 mg/kg/injection, schedule: Q01DX010 (ip), vehicle: saline) was 88 % of control; the T/C (dose: 7.0 mg/kg/injection, schedule: Q01DX001 (ip), vehicle: saline) is 115 % of control. Moreover, the T/C was 119 % of control (dose: 12.0 mg/kg/injection, schedule: Q03DX Z (ip), vehicle: saline); 117 % of control and 119 % of control (dose: 14.0 mg/kg/injection, schedule: Q01DX001 (ip), vehicle: saline); 117 % of control and 119 % of control (dose: 14.0 mg/kg/injection, schedule: Q07DX Z (ip), vehicle: saline); 88 % of control (dose: 28.0 mg/kg/injection, schedule: Q01DX001 (ip), vehicle: saline); 121 % of control (dose: 112.0 mg/kg/injection, schedule: Q01DX001 (ip), vehicle: saline).

Take `Cc1ccccn1`: the T/C reads like this: under setting [1], 96 % of control; under setting [2], 100 % of control; under setting [3], 96 % of control.

With `Clc1[nH]nc2ccccc12`, the T/C runs as follows: (dose: 7.8 mg/kg/injection, schedule: Q01DX010 (ip), vehicle: saline) 100 % of control; (dose: 15.6 mg/kg/injection, schedule: Q01DX010 (ip), vehicle: saline) 96 % of control; under setting [4], 96 % of control; under setting [1], 107 % of control and 100 % of control; under setting [2], 92 % of control.

On to `COc1ccc2cc3[n+](cc2c1OC)CCc1cc2c(cc1-3)OCO2`, for which the T/C reads like this: (dose: 1.56 mg/kg/injection, schedule: Q01DX010 (ip), vehicle: saline) 106 % of control; (dose: 3.13 mg/kg/injection, schedule: Q01DX010 (ip), vehicle: saline) 106 % of control; (dose: 6.25 mg/kg/injection, schedule: Q01DX010 (ip), vehicle: saline) 110 % of control; under setting [5], 123 % of control.

Take `COc1cc2c3c(c4ccc(OC)c(OC)c4c2cc1OC)CN1CCC[C@@H]1C3`: the T/C is 105 % of control (dose: 2.5 mg/kg/injection, schedule: Q01DX010 (ip), vehicle: water); 102 % of control (dose: 5.0 mg/kg/injection, schedule: Q01DX010 (ip), vehicle: water); 124 % of control (dose: 7.5 mg/kg/injection, schedule: Q01DX010 (ip), vehicle: water); 113 % of control (dose: 10.0 mg/kg/injection, schedule: Q01DX010 (ip), vehicle: water).

Take `CC1CCC2C(C)C3C(CC4C5CC=C6CC(OC7OC(CO)C(O)C(OC8OC(CO)C(O)C(O)C8O)C7OC7OC(C)C(O)C(O)C7O)CCC6(C)C5CCC43C)N2C1` (stereo not drawn): the T/C was 96 % of control under setting [6], 100 % of control under setting [7], 96 % of control under setting [8] and 92 % of control under setting [9].

Consider `NC1=NNC(=O)C1`, for which the T/C reads like this: under setting [10], 95 % of control; (dose: 150.0 mg/kg/injection, schedule: Q01DX010 (ip), vehicle: water) 95 % of control.

As for `CN(CC(=O)NCCCCCCCCCCNC(=O)CN(C)C(=O)OCc1ccccc1)C(=O)OCc1ccccc1`, the T/C is 96 % of control under setting [6], 96 % of control under setting [7], 96 % of control under setting [8] and 96 % of control under setting [9].

As to `COc1ccc2c(c1OC)C(=O)O[C@@H]2[C@H]1c2c(cc3c(c2OC)OCO3)CCN1C`, the T/C under setting [4] is 103 % of control; the T/C under setting [1] is 92 % of control and 100 % of control; the T/C under setting [2] is 100 % of control; the T/C under setting [3] was 100 % of control.

As to `O=C(NO)c1ccc([N+](=O)[O-])cc1`, the T/C reads like this: (dose: 270.0 mg/kg/injection, schedule: Q01DX010 (ip), vehicle: water) 108 % of control; (dose: 400.0 mg/kg/injection, schedule: Q01DX010 (ip), vehicle: water) 112 % of control.

For the compound `OCC1OC(n2cnc3c(Cl)ncnc32)C(O)C1O` (stereo not drawn), the T/C was 94 % of control and 100 % of control under setting [1]; 100 % of control under setting [2]; 111 % of control under setting [3]; 105 % of control and 88 % of control (dose: 500.0 mg/kg/injection, schedule: Q01DX010 (ip), vehicle: saline).

Consider `C[C@]12C=CC(=O)C=C1CC[C@@H]1[C@@H]2CC[C@]2(C)OC(=O)CC[C@@H]12`, for which the T/C is 107 % of control (dose: 12.5 mg/kg/injection, schedule: Q01DX010 (sc), vehicle: steriod suspending solution); 107 % of control (dose: 25.0 mg/kg/injection, schedule: Q01DX010 (sc), vehicle: steriod suspending solution); 107 % of control (dose: 50.0 mg/kg/injection, schedule: Q01DX010 (sc), vehicle: steriod suspending solution); 100 % of control (dose: 100.0 mg/kg/injection, schedule: Q01DX010 (sc), vehicle: steriod suspending solution).

For the compound `COC1=C(N)C(=O)c2nc(-c3nc(C(=O)O)c(C)c(-c4ccc(OC)c(OC)c4O)c3N)ccc2C1=O`, the T/C is, setting by setting: (dose: 0.06 mg/kg/injection, schedule: Q01DX010 (ip), vehicle: saline) 117 % of control; (dose: 0.09 mg/kg/injection, schedule: Q01DX010 (ip), vehicle: saline) 110 % of control; under setting [11], 103 % of control.

For the compound `N#C[C@@H]1C2C=CC(CC2)[C@H]1C#N`, the T/C runs as follows: under setting [12], 100 % of control; under setting [13], 103 % of control and 96 % of control; under setting [14], 103 % of control and 100 % of control; (dose: 2.0 mg/kg/injection, schedule: Q01DX010 (ip), vehicle: saline) 103 % of control and 96 % of control.

As to `OCCN1CCC(CCCC2CCNCC2)CC1`, the T/C under setting [5] is 96 % of control; the T/C (dose: 25.0 mg/kg/injection, schedule: Q01DX010 (ip), vehicle: saline) is 93 % of control; the T/C under setting [6] was 89 % of control.

For `C=C1c2[nH]c3ccccc3c2CN2CCC1/C(=C/C)C2` (stereo not drawn), the T/C runs as follows: under setting [11], 96 % of control; under setting [12], 93 % of control; under setting [13], 96 % of control; under setting [14], 100 % of control.

As to `C[C@H]1/C(=C/C(=O)OCCN(C)C)CC[C@H]2[C@H]1C(=O)C[C@H]1C(C)(C)[C@@H](O)CC[C@]21C`, the T/C reads like this: (dose: 4.0 mg/kg/injection, schedule: Q01DX010 (ip), vehicle: saline) 96 % of control; (dose: 8.0 mg/kg/injection, schedule: Q01DX010 (ip), vehicle: saline) 113 % of control.

For `NC(=O)c1cn[nH]c1N`, the T/C runs as follows: under setting [10], 100 % of control; (dose: 200.0 mg/kg/injection, schedule: Q01DX010 (ip), vehicle: water) 93 % of control.

In the case of `CNCC(O)(C(=O)O)C(=O)O`, the T/C by setting is: under setting [6], 103 % of control; under setting [7], 96 % of control.
